Measurements published in ChEMBL document CHEMBL2407047, “Molecular design, synthesis and biological evaluation of 1,4-dihydro-4-oxoquinoline ribonucleosides as TcGAPDH inhibitors with trypanocidal activity” (Bioorg Med Chem Lett, 2013).
Calls of active or inactive are those of the source.

Experiments:
[1] = test system: Saccharomyces cerevisiae; test: Effect on Saccharomyces cerevisiae TDH2 up to 500 uM
[2] = test system: Saccharomyces cerevisiae; test: Effect on Saccharomyces cerevisiae TDH3 up to 500 uM
[3] = test system: Saccharomyces cerevisiae; test: Effect on Saccharomyces cerevisiae TDH1 up to 500 uM

Measured: Activity

Cc1ccc2c(c1)c(=O)c(C(=O)O)cn2[C@@H]1O[C@H](CO)[C@@H](O)[C@H]1O
inactive: all assays above

O=C(O)c1cn([C@@H]2O[C@H](CO)[C@@H](O)[C@H]2O)c2ccc(Cl)cc2c1=O
inactive: all assays above

COc1ccc2c(=O)c(C(=O)O)cn([C@@H]3O[C@H](CO)[C@@H](O)[C@H]3O)c2c1
inactive: all assays above

COc1ccc2c(c1)c(=O)c(C(=O)O)cn2[C@@H]1O[C@H](CO)[C@@H](O)[C@H]1O
inactive: all assays above

O=C(O)c1cn([C@@H]2O[C@H](CO)[C@@H](O)[C@H]2O)c2ccc(Br)cc2c1=O
inactive: all assays above

Cc1ccc2c(=O)c(C(=O)O)cn([C@@H]3O[C@H](CO)[C@@H](O)[C@H]3O)c2c1
inactive: all assays above

O=C(O)c1cn([C@@H]2O[C@H](CO)[C@@H](O)[C@H]2O)c2cc(Br)ccc2c1=O
inactive: all assays above
